{"source": "ChEMBL document CHEMBL1201862", "about": "“PubChem BioAssay data set” (2004)", "test_in_all_cases": "inhibition of tumour cell growth, NCI panel, 48 h", "key": {"SF-539": {"test_system": "SF-539"}, "SF-295": {"test_system": "SF-295"}, "NCI-H226": {"test_system": "NCI-H226"}, "A498": {"test_system": "A498"}, "ACHN": {"test_system": "ACHN"}, "OVCAR-8": {"test_system": "OVCAR-8"}, "SK-MEL-2": {"test_system": "SK-MEL-2"}, "UO-31": {"test_system": "UO-31"}, "MDA-N": {"test_system": "MDA-N"}, "K562": {"test_system": "K562"}, "RXF 393": {"test_system": "RXF 393"}, "A549": {"test_system": "A549"}, "NCI-H23": {"test_system": "NCI-H23"}, "OVCAR-5": {"test_system": "OVCAR-5"}, "SK-MEL-28": {"test_system": "SK-MEL-28"}, "CCRF-CEM": {"test_system": "CCRF-CEM"}, "PC-3": {"test_system": "PC-3"}, "786-0": {"test_system": "786-0"}, "DU-145": {"test_system": "DU-145"}, "IGROV-1": {"test_system": "IGROV-1"}, "OVCAR-4": {"test_system": "OVCAR-4"}, "LOX IMVI": {"test_system": "LOX IMVI"}, "RPMI-8226": {"test_system": "RPMI-8226"}, "HCT-15": {"test_system": "HCT-15"}, "UACC-62": {"test_system": "UACC-62"}, "MOLT-4": {"test_system": "MOLT-4"}, "NCI/ADR-RES": {"test_system": "NCI/ADR-RES"}, "HOP-62": {"test_system": "HOP-62"}, "MCF7": {"test_system": "MCF7"}, "SK-OV-3": {"test_system": "SK-OV-3"}, "UACC-257": {"test_system": "UACC-257"}, "SNB-19": {"test_system": "SNB-19"}, "SNB-75": {"test_system": "SNB-75"}, "M14": {"test_system": "M14"}, "NCI-H460": {"test_system": "NCI-H460"}, "SW-620": {"test_system": "SW-620"}, "COLO 205": {"test_system": "COLO 205"}, "EKVX": {"test_system": "EKVX"}, "U-251": {"test_system": "U-251"}, "KM12": {"test_system": "KM12"}, "MDA-MB-435": {"test_system": "MDA-MB-435"}, "HT-29": {"test_system": "HT-29"}, "Malme-3M": {"test_system": "Malme-3M"}, "SF-268": {"test_system": "SF-268"}, "SR": {"test_system": "SR"}, "NCI-H522": {"test_system": "NCI-H522"}, "Hs-578T": {"test_system": "Hs-578T"}, "BT-549": {"test_system": "BT-549"}, "TK-10": {"test_system": "TK-10"}, "HCT-116": {"test_system": "HCT-116"}, "MDA-MB-231": {"test_system": "MDA-MB-231"}, "HL-60": {"test_system": "HL-60"}, "OVCAR-3": {"test_system": "OVCAR-3"}, "SN12C": {"test_system": "SN12C"}}, "note": "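Briefly, cells in 96-well plates were exposed to five compound concentrations for 48 h, and endpoints were estimated by linear interpolation. At the GI50, growth is halved.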 Active and inactive are the calls of the source. No stated cut-off is given here; in the data, active = GI50 up to about 1.1 µM and inactive = higher."}
{"smiles": "CCCNC(=O)c1cc(NC(=O)c2cc(NC(=O)/C=C/c3ccccc3)c(OC)c(OC)c2)c(OC)c(OC)c1", "values": [{"measurement": "GI50", "setting": "SF-539", "value": "6.14 µM (inactive)"}, {"measurement": "GI50", "setting": "SF-295", "value": "3.16 µM (inactive)"}, {"measurement": "GI50", "setting": "NCI-H226", "value": "0.0216 µM (active)"}, {"measurement": "GI50", "setting": "A498", "value": "11.4 µM (inactive)"}, {"measurement": "GI50", "setting": "ACHN", "value": "7.94 µM (inactive)"}, {"measurement": "GI50", "setting": "OVCAR-8", "value": "4.51 µM (inactive)"}, {"measurement": "GI50", "setting": "SK-MEL-2", "value": "7.83 µM (inactive)"}, {"measurement": "GI50", "setting": "UO-31", "value": "5.6 µM (inactive)"}, {"measurement": "GI50", "setting": "MDA-N", "value": "13.8 µM (inactive)"}, {"measurement": "GI50", "setting": "K562", "value": "> 100 µM (inactive)"}, {"measurement": "GI50", "setting": "RXF 393", "value": "2.42 µM (inactive)"}, {"measurement": "GI50", "setting": "A549", "value": "5.64 µM (inactive)"}, {"measurement": "GI50", "setting": "NCI-H23", "value": "11.4 µM (inactive)"}, {"measurement": "GI50", "setting": "OVCAR-5", "value": "12.7 µM (inactive)"}, {"measurement": "GI50", "setting": "SK-MEL-28", "value": "14.5 µM (inactive)"}, {"measurement": "GI50", "setting": "CCRF-CEM", "value": "> 100 µM (inactive)"}, {"measurement": "GI50", "setting": "PC-3", "value": "6.87 µM (inactive)"}, {"measurement": "GI50", "setting": "786-0", "value": "3.61 µM (inactive)"}, {"measurement": "GI50", "setting": "DU-145", "value": "24.8 µM (inactive)"}, {"measurement": "GI50", "setting": "IGROV-1", "value": "12.4 µM (inactive)"}, {"measurement": "GI50", "setting": "OVCAR-4", "value": "2.54 µM (inactive)"}, {"measurement": "GI50", "setting": "LOX IMVI", "value": "2.96 µM (inactive)"}, {"measurement": "GI50", "setting": "RPMI-8226", "value": "27 µM (inactive)"}, {"measurement": "GI50", "setting": "HCT-15", "value": 92.3, "unit": "µM"}, {"measurement": "GI50", "setting": "UACC-62", "value": "0.148 µM (active)"}, {"measurement": "GI50", "setting": "MOLT-4", "value": "> 100 µM (inactive)"}, {"measurement": "GI50", "setting": "NCI/ADR-RES", "value": "9.33 µM (inactive)"}, {"measurement": "GI50", "setting": "HOP-62", "value": "4.41 µM (inactive)"}, {"measurement": "GI50", "setting": "MCF7", "value": "7.98 µM (inactive)"}, {"measurement": "GI50", "setting": "SK-OV-3", "value": "7.62 µM (inactive)"}, {"measurement": "GI50", "setting": "UACC-257", "value": "14.2 µM (inactive)"}, {"measurement": "GI50", "setting": "SNB-19", "value": "5.87 µM (inactive)"}, {"measurement": "GI50", "setting": "SNB-75", "value": "2.49 µM (inactive)"}, {"measurement": "GI50", "setting": "M14", "value": "38.4 µM (inactive)"}, {"measurement": "GI50", "setting": "NCI-H460", "value": "11.8 µM (inactive)"}, {"measurement": "GI50", "setting": "SW-620", "value": "> 100 µM (inactive)"}, {"measurement": "GI50", "setting": "COLO 205", "value": "> 100 µM (inactive)"}, {"measurement": "GI50", "setting": "EKVX", "value": "15.8 µM (inactive)"}, {"measurement": "GI50", "setting": "U-251", "value": "4.11 µM (inactive)"}, {"measurement": "GI50", "setting": "KM12", "value": "8.28 µM (inactive)"}, {"measurement": "GI50", "setting": "MDA-MB-435", "value": "12 µM (inactive)"}, {"measurement": "GI50", "setting": "HT-29", "value": "11.8 µM (inactive)"}, {"measurement": "GI50", "setting": "Malme-3M", "value": "3.08 µM (inactive)"}, {"measurement": "GI50", "setting": "SF-268", "value": "2.05 µM (inactive)"}, {"measurement": "GI50", "setting": "SR", "value": "48.9 µM (inactive)"}, {"measurement": "GI50", "setting": "NCI-H522", "value": "4.72 µM (inactive)"}, {"measurement": "GI50", "setting": "Hs-578T", "value": "1.92 µM (inactive)"}, {"measurement": "GI50", "setting": "BT-549", "value": "17.8 µM (inactive)"}, {"measurement": "GI50", "setting": "TK-10", "value": "14.8 µM (inactive)"}, {"measurement": "GI50", "setting": "HCT-116", "value": "5.7 µM (inactive)"}, {"measurement": "GI50", "setting": "MDA-MB-231", "value": "1.26 µM (inactive)"}, {"measurement": "GI50", "setting": "HL-60", "value": "> 100 µM (inactive)"}, {"measurement": "GI50", "setting": "OVCAR-3", "value": "4.01 µM (inactive)"}, {"measurement": "GI50", "setting": "SN12C", "value": "0.248 µM (active)"}]}
